Several values for one entry are separate records, joined by “and”; a condition that tells them apart may be missing. Equal entries are not always repeated. Toxic doses and inconclusive results are not listed.
Tested on: CD2F1 mice, L1210 leukemia ip, survival T/C
Assay: NCI In Vivo Anticancer Drug Screen. Data for tumor model L1210 Leukemia (intraperitoneal) in CD2F1 (CDF1) mice
Settings: higher = longer survival
How it was run: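 Mice carrying a transplanted tumor received test compound or vehicle alone. The value is the measurement in the treated group divided by that in the vehicle-treated control group.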

[1] = endpoint: mean survival time, dose: 100.0 mg/kg/injection, schedule: Q01DX009 (ip), vehicle: saline with Tween-80
[2] = endpoint: mean survival time, dose: 100.0 mg/kg/injection, schedule: Q04DX003 (ip), vehicle: saline with Tween-80
[3] = endpoint: mean survival time, dose: 200.0 mg/kg/injection, schedule: Q01DX009 (ip), vehicle: saline with Tween-80
[4] = endpoint: mean survival time, dose: 200.0 mg/kg/injection, schedule: Q04DX003 (ip), vehicle: saline with Tween-80
[5] = endpoint: mean survival time, dose: 400.0 mg/kg/injection, schedule: Q01DX009 (ip), vehicle: saline with Tween-80
[6] = endpoint: mean survival time, dose: 400.0 mg/kg/injection, schedule: Q04DX003 (ip), vehicle: saline with Tween-80
[7] = endpoint: mean survival time, dose: 100.0 mg/kg/injection, schedule: Q01DX001 (ip), vehicle: saline with Tween-80
[8] = endpoint: mean survival time, dose: 400.0 mg/kg/injection, schedule: Q01DX001 (ip), vehicle: saline with Tween-80

SMILES: COc1cccc(N2CCN(CC(O)COc3ccc(N)cc3)CC2)c1 (stereo not drawn)
- T/C (endpoint: mean survival time, dose: 6.25 mg/kg/injection, schedule: Q04DX002 (ip), vehicle: other): 98 % of control
- T/C (endpoint: mean survival time, dose: 12.5 mg/kg/injection, schedule: Q04DX002 (ip), vehicle: other): 95 % of control
- T/C (endpoint: mean survival time, dose: 25.0 mg/kg/injection, schedule: Q04DX002 (ip), vehicle: other): 107 % of control

SMILES: COC(=O)C1(C(=O)OC)CCCCC1=O
- T/C [1]: 98 % of control
- T/C [2]: 97 % of control
- T/C [3]: 95 % of control
- T/C [4]: 94 % of control
- T/C [5]: 95 % of control
- T/C [6]: 89 % of control

SMILES: C=CCOCC(O)CN(CCCC)CCCC (stereo not drawn)
- T/C (endpoint: mean survival time, dose: 25.0 mg/kg/injection, schedule: Q04DX003 (ip), vehicle: saline with Tween-80): 104 % of control
- T/C (endpoint: mean survival time, dose: 50.0 mg/kg/injection, schedule: Q04DX003 (ip), vehicle: saline with Tween-80): 106 % of control
- T/C [2]: 90 % of control and 110 % of control

SMILES: Cn1c(-c2ccccc2)nc2c(N)ncnc21
- T/C [7]: 93 % of control
- T/C [8]: 87 % of control

SMILES: O/N=C1/CCCc2ccccc21
- T/C [1]: 98 % of control
- T/C [2]: 100 % of control
- T/C [3]: 101 % of control
- T/C [4]: 97 % of control
- T/C [5]: 104 % of control
- T/C [6]: 100 % of control

SMILES: CC(=O)OCC1OC(N2CN=C(N)NC2=O)C(OC(C)=O)C1OC(C)=O (stereo not drawn)
- T/C (endpoint: mean survival time, dose: 3.12 mg/kg/injection, schedule: Q01DX009 (ip), vehicle: saline): 109 % of control
- T/C (endpoint: mean survival time, dose: 6.25 mg/kg/injection, schedule: Q01DX009 (ip), vehicle: saline): 108 % of control
- T/C (endpoint: mean survival time, dose: 12.5 mg/kg/injection, schedule: Q01DX009 (ip), vehicle: saline): 115 % of control and 110 % of control
- T/C (endpoint: mean survival time, dose: 50.0 mg/kg/injection, schedule: Q01DX009 (ip), vehicle: saline): 178 % of control and 183 % of control
- T/C (endpoint: mean survival time, dose: 100.0 mg/kg/injection, schedule: Q01DX009 (ip), vehicle: saline): 203 % of control and 208 % of control

SMILES: C[Si](C)(C)Oc1ccc(O[Si](C)(C)C)cc1
- T/C (endpoint: mean survival time, dose: 100.0 mg/kg/injection, schedule: Q04DX003 (ip), vehicle: other): 109 % of control
- T/C (endpoint: mean survival time, dose: 200.0 mg/kg/injection, schedule: Q04DX003 (ip), vehicle: other): 97 % of control
- T/C (endpoint: mean survival time, dose: 400.0 mg/kg/injection, schedule: Q04DX003 (ip), vehicle: other): 106 % of control

SMILES: OC1COC(c2cnn(-c3ccccc3)n2)C1O (stereo not drawn)
- T/C (endpoint: median survival time, dose: 12.5 mg/kg/injection, schedule: Q01DX005 (ip), vehicle: water): 105 % of control and 110 % of control
- T/C (endpoint: median survival time, dose: 25.0 mg/kg/injection, schedule: Q01DX005 (ip), vehicle: water): 103 % of control
- T/C (endpoint: median survival time, dose: 50.0 mg/kg/injection, schedule: Q01DX005 (ip), vehicle: water): 105 % of control and 103 % of control
- T/C (endpoint: median survival time, dose: 100.0 mg/kg/injection, schedule: Q01DX005 (ip), vehicle: water): 103 % of control and 104 % of control
- T/C (endpoint: median survival time, dose: 200.0 mg/kg/injection, schedule: Q01DX005 (ip), vehicle: water): 100 % of control and 103 % of control
- T/C (endpoint: median survival time, dose: 400.0 mg/kg/injection, schedule: Q01DX005 (ip), vehicle: water): 107 % of control

SMILES: O=C(Nc1ccc(Nc2ccncc2)cc1)c1ccc(Nc2ccnc3ccccc23)cc1[N+](=O)[O-]
- T/C [7]: 98 % of control
- T/C (endpoint: mean survival time, dose: 200.0 mg/kg/injection, schedule: Q01DX001 (ip), vehicle: saline with Tween-80): 96 % of control
- T/C [8]: 95 % of control

SMILES: O=C(C/C(=N\C(=S)Nc1cc(C(F)(F)F)ccc1Cl)NO)N1CCCC1
- T/C (endpoint: median survival time, dose: 12.5 mg/kg/injection, schedule: Q01DX009 (ip), vehicle: saline with Tween-80): 101 % of control
- T/C (endpoint: median survival time, dose: 25.0 mg/kg/injection, schedule: Q01DX009 (ip), vehicle: saline with Tween-80): 97 % of control and 105 % of control
- T/C (endpoint: median survival time, dose: 50.0 mg/kg/injection, schedule: Q01DX009 (ip), vehicle: saline with Tween-80): 102 % of control (2×) and 106 % of control
- T/C (endpoint: median survival time, dose: 100.0 mg/kg/injection, schedule: Q01DX009 (ip), vehicle: saline with Tween-80): 108 % of control and 109 % of control
- T/C (endpoint: median survival time, dose: 200.0 mg/kg/injection, schedule: Q01DX009 (ip), vehicle: saline with Tween-80): 121 % of control and 122 % of control and 123 % of control
- T/C (endpoint: median survival time, dose: 300.0 mg/kg/injection, schedule: Q01DX009 (ip), vehicle: saline with Tween-80): 86 % of control

SMILES: C/C(CCc1ccccc1)=N/O
- T/C (endpoint: mean survival time, dose: 100.0 mg/kg/injection, schedule: Q01DX009 (ip), vehicle: other): 100 % of control
- T/C (endpoint: mean survival time, dose: 200.0 mg/kg/injection, schedule: Q01DX009 (ip), vehicle: other): 103 % of control
- T/C (endpoint: mean survival time, dose: 400.0 mg/kg/injection, schedule: Q01DX009 (ip), vehicle: other): 101 % of control

SMILES: Cc1ccc2c(c1)CN(C13CC4CC(CC(C4)C1)C3)CO2
- T/C [1]: 96 % of control
- T/C [3]: 96 % of control
- T/C [5]: 97 % of control

SMILES: Cc1cc(=O)[nH]c(Nc2ccccc2)n1
- T/C [2]: 105 % of control
- T/C [4]: 97 % of control
- T/C [6]: 88 % of control

SMILES: COc1nc(N)nc2c1nnn2C1OC(CO)C(O)C1O (stereo not drawn)
- T/C (endpoint: mean survival time, dose: 50.0 mg/kg/injection, schedule: Q01DX009 (ip), vehicle: Klucel (hydroxypropylcellulose) (HPC)): 117 % of control

Source: PubChem BioAssay AID256 (DTP/NCI, 2004)
